Biological target: GST-Xa-hAAK1 (Homo sapiens (Human), UniProt Q2M2I8)
Assay: AAK1 Kinase Assay;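 further: each compound tested across an eleven-point concentration series, with IC50 obtained through non-linear regression fitting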
Type: biochemical
Conditions: bacterially expressed GST-Xa-hAAK1 3.5 nM; ATP 22 μM; peptide substrate 1.5 μM; 3 hours at room temperature; Caliper LabChip 3000

GST-Xa-hAAK1, sequence (Q2M2I8 whole entry): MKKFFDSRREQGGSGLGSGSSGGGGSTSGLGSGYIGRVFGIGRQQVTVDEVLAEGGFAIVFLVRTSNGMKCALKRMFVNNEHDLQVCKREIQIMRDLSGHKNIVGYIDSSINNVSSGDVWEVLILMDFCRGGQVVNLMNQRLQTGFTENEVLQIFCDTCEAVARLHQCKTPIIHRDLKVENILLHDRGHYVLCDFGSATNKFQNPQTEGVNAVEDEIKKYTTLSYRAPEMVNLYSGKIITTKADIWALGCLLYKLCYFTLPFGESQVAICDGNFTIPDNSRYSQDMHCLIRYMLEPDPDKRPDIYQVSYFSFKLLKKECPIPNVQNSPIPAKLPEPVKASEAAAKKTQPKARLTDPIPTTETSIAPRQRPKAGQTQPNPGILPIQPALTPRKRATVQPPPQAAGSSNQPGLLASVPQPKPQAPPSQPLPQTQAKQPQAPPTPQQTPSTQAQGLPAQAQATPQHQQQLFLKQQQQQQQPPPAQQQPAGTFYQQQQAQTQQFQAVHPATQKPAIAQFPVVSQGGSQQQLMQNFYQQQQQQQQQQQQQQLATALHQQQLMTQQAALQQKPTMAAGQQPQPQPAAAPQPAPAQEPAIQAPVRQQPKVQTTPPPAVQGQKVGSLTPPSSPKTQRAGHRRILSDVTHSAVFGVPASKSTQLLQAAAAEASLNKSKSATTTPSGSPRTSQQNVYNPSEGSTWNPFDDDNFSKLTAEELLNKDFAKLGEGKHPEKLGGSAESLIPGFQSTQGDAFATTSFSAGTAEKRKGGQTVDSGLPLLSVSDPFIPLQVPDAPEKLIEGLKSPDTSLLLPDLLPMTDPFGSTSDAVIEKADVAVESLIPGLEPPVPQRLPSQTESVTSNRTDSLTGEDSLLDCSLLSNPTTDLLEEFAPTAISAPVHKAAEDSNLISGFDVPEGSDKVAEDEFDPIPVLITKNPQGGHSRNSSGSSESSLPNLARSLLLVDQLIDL

| SMILES | IC50 |
| --- | --- |
| COc1cnccc1-c1ccc(OC[C@@](C)(N)CC(C)C)c(C(F)(F)F)c1 [Example 46, (S)-1-(4-(3-methoxypyridin-4-yl)-2-(trifluoromethyl)phenoxy)-2,4-dimethylpentan-2-amine] | 0.86 nM |
| Cc1cc(-c2ccc(OC[C@@](C)(N)CC(C)C)c(C(F)F)n2)ccn1 [Example 119, (S)-1-((6-(difluoromethyl)-2′-methyl-[2,4′-bipyridin]-5-yl)oxy)-2,4-dimethylpentan-2-amine] | 3.2 nM |
| COC(=O)Nc1cc(-c2ccc(OC[C@@H](N)CC(C)C)c(-c3ccno3)c2)ccn1 [Example 14, (S)-methyl (4-(4-((2-amino-4-methylpentyl)oxy)-3-(isoxazol-5-yl)phenyl)pyridin-2-yl)carbamate] | 0.87 nM |
| COC(=O)Nc1nccc(-c2ccc(OC[C@@](C)(N)CC(C)C)c(C#N)c2)c1F [Example 100, (S)-methyl (4-(4-((2-amino-2,4-dimethylpentyl)oxy)-3-cyanophenyl)-3-fluoropyridin-2-yl)carbamate] | 6.8 nM |
| COC(=O)Nc1cc(-c2ccc(OC[C@@](C)(N)CC(C)C)c(S(C)(=O)=O)c2)ccn1 [Example 113, (S)-methyl (4-(4-((2-amino-2,4-dimethylpentyl)oxy)-3-(methylsulfonyl)phenyl)pyridin-2-yl)carbamate] | 43 nM |
| CC(C)C[C@](C)(N)COc1cnc(-c2ccnc3ccc(F)cc23)cc1Cl [Example 235, (S)-1-((4-chloro-6-(6-fluoroquinolin-4-yl)pyridin-3-yl)oxy)-2,4-dimethylpentan-2-amine] | 0.36 nM |
| CC(C)C[C@](C)(N)COc1ccc(-c2ccnc(C(F)F)c2)cc1OC(F)(F)F [Example 38, (S)-1-(4-(2-(difluoromethyl)pyridin-4-yl)-2-(trifluoromethoxy)phenoxy)-2,4-dimethylpentan-2-amine] | 0.79 nM |
| CC(C)C[C@](C)(N)COc1ccc(-c2ccnc3cc(C#N)ccc23)cc1C(F)(F)F [Example 89, (S)-4-(4-((2-amino-2,4-dimethylpentyl)oxy)-3-(trifluoromethyl)phenyl)quinoline-7-carbonitrile] | 0.66 nM |
| CC(C)C[C@](C)(N)COc1ccc(-c2ccnc3cc(Cl)ccc23)cc1C(F)(F)F [Example 88, (S)-1-(4-(7-chloroquinolin-4-yl)-2-(trifluoromethyl)phenoxy)-2,4-dimethylpentan-2-amine] | 0.46 nM |
| CC(C)C[C@@](N)(CF)COc1cnc(-c2ccnc(C(F)F)c2)cc1C(F)F [Example 184, (S)-1-((2′,4-bis(difluoromethyl)-[2,4′-bipyridin]-5-yl)oxy)-2-(fluoromethyl)-4-methylpentan-2-amine] | 3.3 nM |
| CC(C)C[C@](C)(N)COc1cnc(-c2ccnc3cc(F)cc(F)c23)cc1Cl [Example 233, (S)-1-((4-chloro-6-(5,7-difluoroquinolin-4-yl)pyridin-3-yl)oxy)-2,4-dimethylpentan-2-amine] | 0.73 nM |
| CC(C)C[C@](C)(N)COc1ccc(-c2ccnc3ccncc23)cc1C(F)(F)F [Example 85, (S)-1-(4-(1,6-naphthyridin-4-yl)-2-(trifluoromethyl)phenoxy)-2,4-dimethylpentan-2-amine] | 0.32 nM |
| Cc1cc(-c2cc(Cl)c(OC[C@@](C)(N)CC(C)C)cn2)ccn1 [Example 238, (S)-1-((4-chloro-2′-methyl-[2,4′-bipyridin]-5-yl)oxy)-2,4-dimethylpentan-2-amine] | 2.1 nM |
| CC(C)C[C@](C)(N)COc1ncc(-c2ccnc(Cl)c2)cc1C(F)F [Example 193, (S)-1-((2′-chloro-5-(difluoromethyl)-[3,4′-bipyridin]-6-yl)oxy)-2,4-dimethylpentan-2-amine] | 2.9 nM |
| CC(C)C[C@H](N)COc1ccc(-c2ccnc3ccccc23)cc1-c1ccno1 [Example 110, (S)-1-(2-(isoxazol-5-yl)-4-(quinolin-4-yl)phenoxy)-4-methylpentan-2-amine] | 3.5 nM |
| Cc1nccc(-c2ccc(OC[C@@](C)(N)CC(C)C)c(C(F)(F)F)c2)c1C(=O)O [Example 111, (S)-4-(4-((2-amino-2,4-dimethylpentyl)oxy)-3-(trifluoromethyl)phenyl)-2-methylnicotinic acid] | 650 nM |
| Cc1cc(-c2cc(C(F)F)c(OC[C@@](N)(CF)CC(C)C)cn2)ccn1 [Example 188, (R)-1-((4-(difluoromethyl)-2′-methyl-[2,4′-bipyridin]-5-yl)oxy)-2-(fluoromethyl)-4-methylpentan-2-amine] | 92 nM |
| Cc1nccc(-c2ccc(OC[C@@](C)(N)CC(C)C)c(C#N)c2)c1F [Example 103, (S)-2-((2-amino-2,4-dimethylpentyl)oxy)-5-(3-fluoro-2-methylpyridin-4-yl)benzonitrile] | 0.68 nM |
| CC(=O)Nc1cc(-c2ccc(OC[C@@H](N)CC(C)C)c(Cl)c2)ccn1 [Example 8, (S)—N-(4-(4-((2-amino-4-methylpentyl)oxy)-3-chlorophenyl)pyridin-2-yl)acetamide] | 0.53 nM |
| Cc1cc(-c2ccnc3cc(F)ccc23)ncc1OC[C@@](C)(N)CC(C)C [Example 227, (S)-1-((6-(7-fluoroquinolin-4-yl)-4-methylpyridin-3-yl)oxy)-2,4-dimethylpentan-2-amine] | 0.93 nM |

| SMILES | IC50 |
| --- | --- |
| COC(=O)Nc1cc(-c2ccc(OC[C@@](C)(N)CC(C)C)c(C3CC3)c2)ccn1 [Example 33, (S)-methyl (4-(4-((2-amino-2,4-dimethylpentyl)oxy)-3-cyclopropylphenyl)pyridin-2-yl)carbamate] | 0.32 nM |
| CC(C)C[C@](C)(N)COc1ccc(-c2ccnc3ccc(F)cc23)cc1C(F)F [Example 116, (S)-1-(2-(difluoromethyl)-4-(6-fluoroquinolin-4-yl)phenoxy)-2,4-dimethylpentan-2-amine] | 0.93 nM |
| CC(C)C[C@@](C)(N)COc1cnc(-c2ccnc(C(F)F)c2)cc1C(F)F [Example 175, (R)-1-((2′,4-bis(difluoromethyl)-[2,4′-bipyridin]-5-yl)oxy)-2,4-dimethylpentan-2-amine] | 17 nM |
| CC(C)CC(C)(N)COc1c(F)cc(-c2ccnc3ccccc23)cc1Cl (stereo not shown) [Example 75, 1-(2-chloro-6-fluoro-4-(quinolin-4-yl)phenoxy)-2,4-dimethylpentan-2-amine] | 34 nM |
| COc1cc(-c2ccnc(C(F)F)c2)ncc1OC[C@@](C)(N)CC(C)C [Example 207, (S)-1-((2′-(difluoromethyl)-4-methoxy-[2,4′-bipyridin]-5-yl)oxy)-2,4-dimethylpentan-2-amine] | 19 nM |
| CC(C)C[C@@](N)(CF)COc1ccc(-c2ccnc(C(F)F)c2)nc1C(F)F [Example 183, (S)-1-((2′,6-bis(difluoromethyl)-[2,4′-bipyridin]-5-yl)oxy)-2-(fluoromethyl)-4-methylpentan-2-amine] | 8.8 nM |
| CC(C)C[C@](C)(N)COc1ccc(-c2ccnc(C(F)F)c2)cc1C(F)(F)F [Example 35, (S)-1-(4-(2-(difluoromethyl)pyridin-4-yl)-2-(trifluoromethyl)phenoxy)-2,4-dimethylpentan-2-amine] | 0.77 nM |
| COC(=O)Nc1cc(-c2ccc(OC[C@@](C)(N)CC(C)C)c(CN(C)C)c2)ccn1 [Example 112, (S)-methyl (4-(4-((2-amino-2,4-dimethylpentyl)oxy)-3-((dimethylamino)methyl)phenyl)pyridin-2-yl)carbamate] | 970 nM |
| CC(=O)Nc1cccc(-c2ccc(OC[C@](C)(N)CC(C)C)c(C)c2)c1 [Example 251] | 1100 nM |
| CC(=O)Nc1cc(-c2ccc(OC[C@@](C)(N)CC(C)C)c(C#N)c2)ccn1 [Example 21, (S)—N-(4-(4-((2-amino-2,4-dimethylpentyl)oxy)-3-cyanophenyl)pyridin-2-yl)acetamide] | 0.74 nM |
| Cc1cc(-c2ccnc3cc(F)cc(F)c23)ncc1OC[C@@](C)(N)CC(C)C [Example 226, (S)-1-((6-(5,7-difluoroquinolin-4-yl)-4-methylpyridin-3-yl)oxy)-2,4-dimethylpentan-2-amine] | 0.93 nM |
| COC(=O)Nc1cc(-c2ccc(OCC3(CC(C)C)CNC3)c(C)n2)ccn1 [Example 108, methyl (5-((3-isobutylazetidin-3-yl)methoxy)-6-methyl-[2,4′-bipyridin]-2′-yl)carbamate] | 106 nM |
| CC(C)C[C@](C)(N)COc1ccc(-c2ccnc3cc(F)cc(F)c23)cc1C(F)(F)F [Example 72, (S)-1-(4-(5,7-difluoroquinolin-4-yl)-2-(trifluoromethyl)phenoxy)-2,4-dimethylpentan-2-amine] | 0.53 nM |
| Cc1nc(-c2ccnc3ccccc23)ccc1OC[C@@](C)(N)CC(C)C [Example 81, (S)-2,4-dimethyl-1-((2-methyl-6-(quinolin-4-yl)pyridin-3-yl)oxy)pentan-2-amine] | 7.8 nM |
| CC(C)C[C@](C)(N)COc1ccc(-c2ccnc3ccccc23)cc1C1CC1 [Example 74, (S)-1-(2-cyclopropyl-4-(quinolin-4-yl)phenoxy)-2,4-dimethylpentan-2-amine] | 0.07 nM |
| CC(C)C[C@](C)(N)COc1ccc(-c2ccnc3ccc(F)cc23)cc1C(F)(F)F [Example 73, (S)-1-(4-(6-fluoroquinolin-4-yl)-2-(trifluoromethyl)phenoxy)-2,4-dimethylpentan-2-amine] | 0.51 nM |
| COC(=O)Nc1cc(-c2ccc(OCC(C)(N)CC(C)C)c(C)c2C)ccn1 (stereo not shown) [Example 31, methyl (4-(4-((2-amino-2,4-dimethylpentyl)oxy)-2,3-dimethylphenyl)pyridin-2-yl)carbamate] | 4.5 nM |
| CC(C)C[C@](C)(N)COc1ccc(-c2ccnc(F)c2Cl)cc1C(F)(F)F [Example 39, (S)-1-(4-(3-chloro-2-fluoropyridin-4-yl)-2-(trifluoromethyl)phenoxy)-2,4-dimethylpentan-2-amine] | 3.2 nM |
| CC(C)C[C@](C)(N)COc1cnc(-c2ccnc3ccccc23)cc1C(F)(F)F [Example 145, (S)-2,4-dimethyl-1-((6-(quinolin-4-yl)-4-(trifluoromethyl)pyridin-3-yl)oxy)pentan-2-amine] | 0.24 nM |
| Cc1cc(-c2ccc(OC[C@@](C)(N)CC(C)C)c(C#N)c2)c(F)cn1 [Example 105, (S)-2-((2-amino-2,4-dimethylpentyl)oxy)-5-(5-fluoro-2-methylpyridin-4-yl)benzonitrile] | 0.72 nM |

From patent US9902722B2, “Biaryl kinase inhibitors” (BRISTOL-MYERS SQUIBB COMPANY, priority 2014, dated 2018)
